Results reported in US12507703B2, “Methods, devices and compositions for preserving human milk” (The Trustees of Princeton University, priority 2023, dated 2025).
Values joined by “and” are separate entries in the source; they are usually repeats but may differ in a detail not shown here. Identical values can stand only once. Like-named read-outs stand apart in the source and are kept apart here. Where a SMILES comes first, the peptide text is derived from it.

Legend:
glycerol = assay: Glycerol-Glo assay of glycerol (byproduct of fat breakdown) in stored human milk; type: biochemical
Method: Eight human milk samples were tested to determine if glycerol, a byproduct of fat breakdown, accumulated after storage. Human milk samples were collected from the same donor anywhere between 1 month and 7 months after birth, frozen, and then thawed for testing. The samples were frozen on the same day as collection. […] The samples were thawed, and the presence of glycerol was detected by a glycerol-dependent, light-producing reaction presented as a measure of bioluminescence using the Glycerol-Glo™ Assay (Promega; catalog #: J3150) according to the manufacturer's instructions. A buffer with either 0 μM glycerol or 100 μM glycerol, alongside organic whole milk (cow) was used as a control. Glycerol content (bioluminescence) was measured using a BioTek Synergy Neo2 Hybrid Multimode Reader (Agilent; catalog #: BTNE02).

lipase = assay: Lipase/lipolysis assay (EnzChek Lipase Substrate, quenched BODIPY-fatty acid conjugate) on stored human milk; conditions: for Lipolysis: 5 ounces unpasteurized human milk, frozen −20° C. 1 week
[1] = Total Antioxidant Capacity Assay Kit on stored human milk
Method: The compounds in Table 7 were added to fresh human milk and the samples were stored for 1 week at −20° C. […] Additionally, select compounds were tested for total Antioxidant capacity using the Total Antioxidant Capacity: Total Antioxidant Capacity Assay Kit (Abcam; catalog #: ab65329) in accordance with the manufacturer's instructions and presented as a relative ratio compared to fresh human milk. […] Lipase was considered inhibited with a RFU <400, glycerol was considered inhibited with an RLU <150,000, and total antioxidant capacity considered maintained with a ratio >0.75. Results presented in Table 7 represent a dose of 500 μg/mL for vitamin C, E and the carbonate/bicarbonates. All other compounds are at 20 mg/mL. Additionally, all compounds were tested for lipase and antioxidant capacity at multiple dilutions.

[2] = Table 7, 500 μg/mL, relative ratio compared to fresh human milk, maintained if >0.75

| Compound | Lipase (RFU) (lipase) | further results |
| --- | --- | --- |
| Triton X-100 [reference compound] | 370.282 RFU | Glycerol (RLU) (glycerol): 145670 RLU |
| Lambda carageenan | 432.920 RFU | Glycerol (RLU) (glycerol): 140894 RLU |
| Tween 80 | – | Effect on glycerol production (in words) (glycerol): reduced lipase and glycerol production; Glycerol (RLU) (glycerol): 113807 RLU; Effect on lipase / lipolysis (in words) (lipase): reduced lipase and glycerol production; Hit in lipase inhibition screen (in words) (lipase): significantly inhibited lipase activity |
| O=C(O)[C@H]1O[C@H](O[C@@H]2[C@H](O)[C@@H](O)[C@@H](O)O[C@@H]2C(=O)O)[C@H](O)[C@@H](O)[C@H]1O [Digalacturonic acid] | 264.075 RFU | Glycerol (RLU) (glycerol): 61741 RLU |
| Gum arabic | 744.000 RFU | Glycerol (RLU) (glycerol): 329275 RLU; Total Antioxidant Capacity [1]: 0.64 |
| O=C(O)[C@H]1O[C@H](O[C@@H]2[C@H](O)[C@@H](O)[C@@H](O[C@@H]3[C@H](O)[C@@H](O)C(O)O[C@@H]3C(=O)O)O[C@@H]2C(=O)O)[C@H](O)[C@@H](O)[C@H]1O (stereo partly drawn) [Trigalacturonic acid] | 352.972 RFU | Glycerol (RLU) (glycerol): 61363 RLU |
| O.O=C[C@H](O)[C@@H](O)[C@@H](O)[C@H](O)C(=O)O [D-(+)-Galacturonic acid monohydrate] | 324.895 RFU | Glycerol (RLU) (glycerol): 71322 RLU |
| tocopherol [Vitamin E] | – | Total Antioxidant Capacity [1, 2]: 2 |
| Pectin | – | Total Antioxidant Capacity ([1]; Subject 1, 5 ounces unpasteurized human milk, frozen −20° C. 1 week, measure of absorbance): 0.204; Total Antioxidant Capacity ([1]; Subject 2, 5 ounces unpasteurized human milk, frozen −20° C. 1 week, measure of absorbance): 0.264; Total Antioxidant Capacity ([1]; Subject 3, 5 ounces unpasteurized human milk, frozen −20° C. 1 week, measure of absorbance): 0.364; Lipolysis (lipase; Subject 1): 209; Lipolysis (lipase; Subject 2): 525; Lipolysis (lipase; Subject 3): 280 |
| Perfected guar gum | 1061.697 RFU | Glycerol (RLU) (glycerol): 838585 RLU; Total Antioxidant Capacity [1]: 0.72 |
| O=C1O[C@H]([C@@H](O)CO)C(O)=C1O [Vitamin C, ascorbic acid] | – | Total Antioxidant Capacity [1, 2]: 2 |
| Locust bean gum | 1054.203 RFU | Glycerol (RLU) (glycerol): 435487 RLU; Total Antioxidant Capacity [1]: 0.55 |
| Guar gum | – | Glycerol (RLU) (glycerol): 744165 RLU; Total Antioxidant Capacity [1]: 0.59 |
| Poly-D-galacturonic acid methyl ester (apple) | 611.342 RFU | Glycerol (RLU) (glycerol): 643757 RLU |
| Polygalacturonic acid | 398.125 RFU | Glycerol (RLU) (glycerol): 120477 RLU |
| Poly-D-galacturonic acid methyl ester (citrus) | 320.660 RFU | Glycerol (RLU) (glycerol): 122743 RLU |
| COc1cc(-c2cc(=O)c3c(O)c(OC)c(O)cc3o2)ccc1O [Jaceosidin] | 614.7008 RFU | – |
| C[C@H]1O[C@@H](O[C@H]2[C@@H](O)C[C@H](O[C@H]3[C@@H](O)C[C@H](O[C@H]4CC[C@@]5(C)[C@H](CC[C@@H]6[C@@H]5CC[C@]5(C)[C@@H](C7=CC(=O)OC7)CC[C@]65O)C4)O[C@@H]3C)O[C@@H]2C)C[C@H](O)[C@@H]1O [Digitoxin] | 1074.946 RFU | – |
| CC(C)=CCC/C(C)=C/CC/C(C)=C/CC[C@]1(C)CCc2c(C)c(O)cc(C)c2O1 [β-Tocotrienol] | 668.6336 RFU | – |
| Cc1ccc(C(C)C)c(O)c1 [Thymol] | 1327.554 RFU and 943.6199 RFU | – |
| C[C@@]12C=Cc3occc3[C@H]1CC[C@@]13C[C@@H](CC[C@H]12)[C@@](O)(CO)C3 [Kahweol] | 608.7131 RFU | – |

| Compound | Lipase (RFU) (lipase) | further results |
| --- | --- | --- |
| CC(=O)CCc1ccc2c(c1)OCO2 [Piperonyl acetone] | 718.0889 RFU | – |
| O=C(/C=C/c1ccc(O)c(O)c1)O[C@H](C(=O)O)[C@H](OC(=O)/C=C/c1ccc(O)c(O)c1)C(=O)O [L-Chicoric Acid] | 1257.708 RFU | – |
| Cc1cc(O)cc2c1O[C@](C)(CCC[C@H](C)CCC[C@H](C)CCCC(C)C)CC2 [Delta-Tocopherol] | 1328.881 RFU | – |
| COc1ccc([C@@H]2CC(=O)c3c(O)cc(O[C@@H]4O[C@H](CO[C@@H]5O[C@@H](C)[C@H](O)[C@@H](O)[C@H]5O)[C@@H](O)[C@H](O)[C@H]4O)cc3O2)cc1O [Hesperidin] | 595.5734 RFU and 766.088 RFU | – |
| C[N+](C)(C)CCO.O=C([O-])C(O)C(O)C(=O)O (stereo not drawn) [Choline (bitartrate)] | 1263.191 RFU and 1046.984 RFU | – |
| COc1cc(/C=C/C(=O)OCC[N+](C)(C)C)cc(OC)c1O.N#C[S-] [Sinapine (thiocyanate)] | 1052.349 RFU | – |
| Oc1ccc2c(c1)OCO2 [Sesamol] | 995.7089 RFU | – |
| C[C@H](O)[C@H](O)C1=Nc2c(nc(N)[nH]c2=O)NC1 [7,8-Dihydro-L-biopterin] | 1090.909 RFU | – |
| C[N+](C)(C)CCCC[C@H](N)C(=O)O [Nε,Nε,Nε-Trimethyllysine (chloride)] | 1143.924 RFU | – |
| Nc1ccccc1C(=O)C[C@H](N)C(=O)O [L-Kynurenine] | 761.0277 RFU | – |
| CC(C)(O)C1Cc2cc3cc(-c4cc(O)cc(O)c4)oc3cc2O1 (stereo not drawn) [Moracin O] | 899.9132 RFU | – |
| N[C@@H](CCCCNC(=O)CCCC[C@@H]1SC[C@@H]2NC(=O)N[C@@H]21)C(=O)O [Biocytin] | 807.0879 RFU | – |
| CC(C)(C)[C@]1(O)CC2OC(=O)CC23C(=O)OC2OC(=O)[C@H](O)C231 (stereo partly drawn) [Bilobalide] | 1114.018 RFU | – |
| CC(C(=O)O)C(=O)O [Methylmalonic acid] | 883.2913 RFU | – |
| C[C@@H](CN)C(=O)O [(S)-b-aminoisobutyric acid] | 859.5436 RFU | – |
| C[C@H](N)C(=O)NCC(=O)O [(S)-2-(2-Aminopropanamido)acetic acid] (H-Ala-Gly-OH) | 993.8076 RFU | – |
| CS(=O)(=O)CC[C@H](N)C(=O)O [L-Methionine Sulfone] | 897.1863 RFU | – |
| Maltohexaose | 977.7036 RFU | – |
| COc1cc2c(CCNC(C)=O)c[nH]c2cc1O [Compound 6-Hydroxymelatonin] | 976.0382 RFU | – |
| Dextran | 949.1554 RFU | – |
| Pyropheophorbide-a | 1205.079 RFU | – |

| Compound | Lipase (RFU) (lipase) | further results |
| --- | --- | --- |
| Hyaluronic acid | 1101.829 RFU | – |
| C/C1=C2/[N-][C@H]([C@H](CC(N)=O)[C@@]2(C)CCC(=O)NC[C@H](C)OP(=O)([O-])O[C@H]2[C@@H](O)[C@@H](n3cnc4cc(C)c(C)cc43)O[C@@H]2CO)[C@]2(C)N=C(/C(C)=C3N=C(/C=C4N=C1[C@@H](CCC(N)=O)C\4(C)C)[C@@H](CCC(N)=O)[C@]\3(C)CC(N)=O)[C@@H](CCC(N)=O)[C@]2(C)CC(N)=O.[CH3-].[Co+3] [Methylcobalamin] | 1187.639 RFU | – |
| N[C@@H](CCC(=O)N[C@@H](CSN=O)C(=O)NCC(=O)O)C(=O)O [Nitrosoglutathione] | 688.3783 RFU | – |
| Laminarin | 336.7375 RFU and 594.197 RFU | Hit in lipase inhibition screen (in words) (lipase): significantly inhibited lipase activity |
| CC(C)[C@@H]1CC[C@H](C)CC1=O [(+)-Isomenthone] | 807.8808 RFU | – |
| CC(C)C12CCC(C)(CC1)O2 [1,4-Cineole] | 770.6625 RFU and 1018.049 RFU | – |
| CCCCCCCC/C=C\CCCCCCCC(=O)O[C@H]1CC[C@@]2(C)C(=CC[C@H]3[C@@H]4CC[C@H]([C@H](C)CCCC(C)C)[C@@]4(C)CC[C@@H]32)C1 [Cholesteryl oleate] | 988.5488 RFU | – |
| O=C(O)c1cc(O)c2c(c1)C(=O)c1cccc(O[C@@H]3O[C@H](CO)[C@@H](O)[C@H](O)[C@H]3O)c1C2=O [Rhein 8-Glucoside] | 942.9082 RFU | – |
| COc1cc(CCN)ccc1O [Compound 3-Methoxytyramine, 3-Methoxytyramine] | 821.2607 RFU | – |
| CC(=O)O[C@]1(C)CC[C@@]23C[C@@H]1C(C)(C)[C@@H]2CC[C@H]3C [Cedryl acetate] | 1088.309 RFU | – |
| Oc1cc(O)c2c(c1)OC1(c3ccc(O)c(O)c3)Oc3cc(O)c4c(c3C2C1O)OC(c1ccc(O)c(O)c1)C(O)C4 (stereo not drawn) [Procyanidin A1] | 1206.886 RFU | – |
| O=c1c(-c2ccc(O)cc2)coc2cc(O[C@@H]3O[C@H](CO)[C@@H](O)[C@H](O)[C@H]3O)ccc12 [Daidzin] | 828.0829 RFU | – |
| COc1cc(/C=C/C(=O)OCC[N+](C)(C)C)cc(OC)c1O [Sinapine] | 1084.597 RFU | – |
| COc1cc(O)c2c(c1)OC(c1ccc(OC)c(O)c1)CC2=O (stereo not drawn) [Persicogenin] | 1028.526 RFU | – |
| CC1=C2[C@H]3OC(=O)[C@@H](C)[C@@H]3CC[C@@]2(C)C=CC1=O [Santonin] | 895.7689 RFU | – |
| N[C@@H](CS(=O)O)C(=O)O [L-Cysteine Sulfinic Acid] | 845.2477 RFU | – |
| Pinoresinol | 1253.681 RFU | – |
| COc1ccc(-c2cc(=O)c3c(O)cc(O[C@@H]4O[C@H](CO[C@@H]5O[C@@H](C)[C@H](O)[C@@H](O)[C@H]5O)[C@@H](O)[C@H](O)[C@H]4O)cc3o2)cc1 [Linarin] | 989.9197 RFU | – |
| COC(=O)C1=CO[C@@H](O[C@@H]2O[C@H](CO)[C@@H](O)[C@H](O)[C@H]2O)[C@H]2[C@@H]1C(=O)C[C@@H]2C [Verbenalin] | 1051.385 RFU | – |
| C/C=C/C=C/C=C\CC/C=C/C(=O)NCC(C)(C)O [Hydroxy-α-sanshool] | 984.0163 RFU | – |
| CN(C)C(N)=NCCC[C@H](N)C(=O)O [Asymmetric dimethylarginine] | 806.9828 RFU | – |
